PubChem BioAssay (NCI)
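Where inhibition never reached the appropriate level, the endpoint shown equals the highest concentration tested. Otherwise, values were interpolated linearly from a five-concentration, 48-hour dose response in 96-well plates. Here, GI50 denotes the concentration required for 50% inhibition of growth. TGI is the concentration that stops growth completely.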

Tests used:
Experiment in all cases: NCI tumour cell line growth inhibition, 48 h
[1] = system: HS 578T breast
[2] = system: SNB-19 CNS
[3] = system: SK-MEL-5 melanoma
[4] = system: U251 CNS
[5] = system: OVCAR-5 ovarian
[6] = system: UACC-257 melanoma
[7] = system: NCI-H226 lung
[8] = system: HCC-2998 colon
[9] = system: HCT-15 colon
[10] = system: T-47D breast
[11] = system: SK-OV-3 ovarian
[12] = system: EKVX NSCLC
[13] = system: OVCAR-8 ovarian
[14] = system: HL-60(TB) leukemia
[15] = system: 786-0 renal
[16] = system: SN12C renal
[17] = system: HOP-92 NSCLC
[18] = system: HT29 colon
[19] = system: UO-31 renal
[20] = system: ACHN renal
[21] = system: PC-3 prostate
[22] = system: DU-145 prostate
[23] = system: MCF7 breast
[24] = system: NCI/ADR-RES ovarian
[25] = system: LOX IMVI melanoma
[26] = system: CAKI-1 renal
[27] = system: SK-MEL-28 melanoma
[28] = system: OVCAR-4 ovarian
[29] = system: COLO 205 colon
[30] = system: KM12 colon
[31] = system: HOP-62 NSCLC
[32] = system: SF-539 CNS
[33] = system: NCI-H522 lung
[34] = system: RXF 393 renal
[35] = system: SF-295 CNS
[36] = system: SF-268 CNS
[37] = system: IGROV1 ovarian
[38] = system: HCT-116 colon
[39] = system: SNB-75 CNS
[40] = system: BT-549 breast
[41] = system: MDA-MB-435
[42] = system: SW-620 colon
[43] = system: M14 melanoma
[44] = system: MALME-3M melanoma
[45] = system: A498 renal
[46] = system: OVCAR-3 ovarian
[47] = system: SK-MEL-2 melanoma
[48] = system: A549 NSCLC
[49] = system: TK-10 renal
[50] = system: NCI-H23 lung
[51] = system: UACC-62 melanoma
[52] = system: CCRF-CEM leukemia
[53] = system: K-562 leukemia
[54] = system: MOLT-4 leukemia
[55] = system: MDA-MB-231 breast
[56] = system: SR leukemia
[57] = system: RPMI-8226 leukemia
[58] = system: NCI-H460 lung

Q: What does the source list for COc1ccc(Nc2nccc(Nc3ccc4[nH]ncc4c3)n2)cc1?
A: GI50 [1]: 5.02 µM; TGI [1]: > 100 µM; GI50 [2]: 4.3 µM; TGI [2]: 87 µM; GI50 [3]: 2.01 µM; TGI [3]: 4.75 µM; GI50 [4]: 3.61 µM; TGI [4]: 13.6 µM; GI50 [5]: 3.33 µM; TGI [5]: > 100 µM; GI50 [6]: 5.41 µM; TGI [6]: 16.9 µM; GI50 [7]: 2.3 µM; TGI [7]: 5.77 µM; GI50 [8]: 2.88 µM; TGI [8]: 8.05 µM; GI50 [9]: 1.9 µM; TGI [9]: 4.28 µM; GI50 [10]: 1.77 µM; TGI [10]: 5.42 µM; GI50 [11]: 7.04 µM; TGI [11]: 21.7 µM; GI50 [12]: 5 µM; TGI [12]: 17.9 µM; GI50 [13]: 2.24 µM; TGI [13]: 5.39 µM; GI50 [14]: 2.05 µM; TGI [14]: 4.67 µM; GI50 [15]: 1.74 µM; TGI [15]: 4.75 µM; GI50 [16]: 3.92 µM; TGI [16]: > 100 µM; GI50 [17]: 3.13 µM; TGI [17]: 12.9 µM; GI50 [18]: 2.36 µM; TGI [18]: 8.33 µM; GI50 [19]: 2.12 µM; TGI [19]: 11.4 µM; GI50 [20]: 2.89 µM; TGI [20]: 11.7 µM; GI50 [21]: 2.21 µM; TGI [21]: 7.2 µM; GI50 [22]: 3.31 µM; TGI [22]: 12.9 µM; GI50 [23]: 2.05 µM; TGI [23]: 5.36 µM; GI50 [24]: 2.18 µM; TGI [24]: 5.75 µM; GI50 [25]: 1.92 µM; TGI [25]: 3.87 µM; GI50 [26]: 2.22 µM; TGI [26]: 14.9 µM; GI50 [27]: 3.64 µM; TGI [27]: 16.5 µM; GI50 [28]: 2.99 µM; TGI [28]: 11.8 µM; GI50 [29]: 2.59 µM; TGI [29]: 7.21 µM; GI50 [30]: 3.45 µM; TGI [30]: 24.2 µM; GI50 [31]: 2.27 µM; TGI [31]: 5.75 µM; GI50 [32]: 4.38 µM; TGI [32]: 16.8 µM; GI50 [33]: 1.86 µM; TGI [33]: 4.77 µM; GI50 [34]: 1.98 µM; TGI [34]: 6.45 µM; GI50 [35]: 3.78 µM; TGI [35]: 13.8 µM; GI50 [36]: 4.2 µM; TGI [36]: 28.6 µM; GI50 [37]: 3.36 µM; TGI [37]: 25.1 µM; GI50 [38]: 2.06 µM; TGI [38]: 4.91 µM; GI50 [39]: 4.58 µM; TGI [39]: 20.3 µM; GI50 [40]: 3.22 µM; TGI [40]: 12.1 µM; GI50 [41]: 2.1 µM; TGI [41]: 5.7 µM; GI50 [42]: 3.31 µM; TGI [42]: > 100 µM; GI50 [43]: 2.39 µM; TGI [43]: 6.15 µM; GI50 [44]: 3.27 µM; TGI [44]: 15.9 µM; GI50 [45]: 4.62 µM; TGI [45]: 17.2 µM; GI50 [46]: 3.15 µM; TGI [46]: 10.6 µM; GI50 [47]: 2.4 µM; TGI [47]: 6.39 µM; GI50 [48]: 3.46 µM; TGI [48]: 14.3 µM; GI50 [49]: 2.45 µM; TGI [49]: 9.55 µM; GI50 [50]: 2.35 µM; TGI [50]: 6.27 µM

Q: Which results are given for C=C1C(=O)O[C@H]2[C@H]1CC/C(COC(=O)CCCCCCC(=O)OC/C1=C/CC[C@@]3(C)O[C@H]3[C@H]3OC(=O)C(=C)[C@@H]3CC1)=C\CC[C@@]1(C)O[C@@H]21?
A: GI50 [1]: 2.3 µM; TGI [1]: 8.7 µM; GI50 [2]: 7.17 µM; TGI [2]: 24.1 µM; GI50 [3]: 4.83 µM; TGI [3]: 16.6 µM; GI50 [4]: 2.96 µM; TGI [4]: 10.3 µM; GI50 [5]: 2.54 µM; TGI [5]: 7.5 µM; GI50 [6]: 2.1 µM; TGI [6]: 6.22 µM; GI50 [7]: 2.39 µM; TGI [7]: 6.65 µM; GI50 [8]: 3.76 µM; TGI [8]: 12.5 µM; GI50 [9]: 2.63 µM; TGI [9]: 10.1 µM; GI50 [10]: 3.48 µM; TGI [10]: 10.8 µM; GI50 [51]: 5.47 µM; TGI [51]: 20.2 µM; GI50 [52]: 1.11 µM; TGI [52]: 5.89 µM; GI50 [11]: 35.9 µM; TGI [11]: > 100 µM; GI50 [12]: 3.66 µM; TGI [12]: 16.1 µM; GI50 [53]: 2.73 µM; TGI [53]: 11.1 µM; GI50 [13]: 3 µM; TGI [13]: 10.3 µM; GI50 [14]: 1.5 µM; TGI [14]: 4.23 µM; GI50 [15]: 1.84 µM; TGI [15]: 3.87 µM; GI50 [16]: 2.9 µM; TGI [16]: 11.2 µM; GI50 [17]: 2.24 µM; TGI [17]: 8.14 µM; GI50 [18]: 2.41 µM; TGI [18]: 4.9 µM; GI50 [54]: 2.4 µM; TGI [54]: 9.93 µM; GI50 [19]: 1.58 µM; TGI [19]: 4.37 µM; GI50 [20]: 2.56 µM; TGI [20]: 8.98 µM; GI50 [21]: 2.74 µM; TGI [21]: 7.98 µM; GI50 [22]: 5.59 µM; TGI [22]: 17.7 µM; GI50 [24]: 4.26 µM; TGI [24]: 29.6 µM; GI50 [25]: 1.58 µM; TGI [25]: 3.12 µM; GI50 [27]: 2.95 µM; TGI [27]: 10.2 µM; GI50 [28]: 3.23 µM; TGI [28]: 13.8 µM; GI50 [55]: 2.28 µM; TGI [55]: 5.94 µM; GI50 [29]: 2 µM; TGI [29]: 4.26 µM; GI50 [56]: 1.51 µM; TGI [56]: 9.88 µM; GI50 [30]: 3.84 µM; TGI [30]: 16.9 µM; GI50 [31]: 6.69 µM; TGI [31]: 22.9 µM; GI50 [32]: 2.52 µM; TGI [32]: 7 µM; GI50 [33]: 1.92 µM; TGI [33]: 3.45 µM; GI50 [34]: 1.61 µM; TGI [34]: 3.33 µM; GI50 [35]: 10.8 µM; TGI [35]: 24.7 µM; GI50 [36]: 3.51 µM; TGI [36]: 14.3 µM; GI50 [57]: 2.27 µM; TGI [57]: 6.42 µM; GI50 [37]: 2.91 µM; TGI [37]: 10.5 µM; GI50 [39]: 12.9 µM; TGI [39]: 36.6 µM; GI50 [40]: 1.81 µM; TGI [40]: 4.33 µM; GI50 [41]: 3.33 µM; TGI [41]: 14.2 µM; GI50 [58]: 5.36 µM; TGI [58]: 23.9 µM; GI50 [42]: 2.18 µM; TGI [42]: 6.24 µM; GI50 [43]: 2.48 µM; TGI [43]: 8.55 µM; GI50 [44]: 2.55 µM; TGI [44]: 7.05 µM; GI50 [45]: 15.3 µM; TGI [45]: 30.5 µM; GI50 [46]: 2.55 µM; TGI [46]: 10 µM; GI50 [47]: 12.6 µM; TGI [47]: 29.7 µM; GI50 [48]: 16.9 µM; TGI [48]: 45 µM; GI50 [49]: 3.46 µM; TGI [49]: 9.42 µM; GI50 [50]: 2.94 µM; TGI [50]: 12.6 µM
